Data taken from article PMC6066796 (Antiviral Research, 2018).
Where two headings read alike, the source gives them in different places.

Key:
[1] = tested on: RAVV (Ravn variant); format: cell-based, Ravn virus
[2] = tested on: recombinant EBOV (Mayinga variant); format: cell-based, Ebola virus; conditions: read-out: Approximate EC50 against recombinant reporter EBOV variants
[3] = tested on: HeV; conditions: cited from earlier work
[4] = tested on: NiV (Malaysian genotype); conditions: cited from earlier work

Row | Compound | Reduction of infectious RAVV titers [1] | EC50 [2] [µM] | Reduction of infectious RAVV titers ([1]; at 50 μM) | EC50 [3] [µM] | EC50 [4] [µM]
1 | 2′-monofluoro-4′-azidocytidine [2′F-4′N3-C] | roughly 1.5 orders of magnitude | 3 to 8 |  |  | 
2 | [N-]=[N+]=N[C@]1(CO)O[C@@H](n2ccc(N)nc2=O)[C@H](O)[C@@H]1O [R1479, 4′-azidocytidine] |  | ~2 | over 4 orders of magnitude | 2.4 | 1.5
